What all share (assay type): physicochemical
Data set [1] is described as follows: Methotrexate release from PCL discs. Particulars: high MePEG concentrations. As for the experimental part: A known weight of a polymer (typically a 2.5 mg pellet) is added to a 15 ml test tube containing 14 ml of a buffer containing 10 mm Na2 HPO4 --NaH2 PO4, 0.145 m NaCl and 0.4 g/l bovine serum albumin. The tubes are capped and tumbled at 37° C. At specific times all the 14 ml of the liquid buffer are removed and replaced with fresh liquid buffer.
The aqueous phase is then removed and the methylene chloride phase is dried under nitrogen. The residue is then dissolved in 60% acetonitrile: 40% water and the solution is injected on to a HPLC system using the following conditions: C8 column (Beckman Instruments USA), mobile phase of 58%:5%:37% acetonitrile: methanol: water at a flow rate of […].
For MTX the collected buffer is applied directly to the HPLC column with no need for extraction in methylene chloride. MTX is analyzed at 302 nm. For Vanadium containing compounds the liquid buffer is analyzed directly using a UV/VIS spectrometer in the 200 to 300 nm range.
Methotrexate ("MTX"; Sigma Chemical Co.) is ground in a pestle and mortar to reduce the particle size to below 5 microns. It is then mixed as a dry powder with polycaprolactone (molecular wt 18000 Birmingham Polymers, Ala. USA). The mixture is heated to 65° C. for 5 minutes and the molten polymer/methotrexate mixture is stirred into a smooth paste for 5 minutes. […]

Data set [2] is described as follows: Vanadyl sulfate release from PCL. The procedure: Vanadyl Sulfate (Fisher Scientific) is first ground in a pestle and mortar to reduce the particle size, then dispersed into melted PCL as described above for MTX. It is then taken up into a syringe to solidify and is ready for use.
Drug release was determined essentially as described above in Example 33, except that a 65 mg pellet of a 10% w/w VOSO4 :PCL was suspended in 10 ml of water and the supernatant analyzed for released Vanadyl Sulphate using UV/Vis absorbance spectroscopy of the peak in the 200 to 300 nm range.

Data set [3] in a line: Encapsulation of sodium suramin in ELVAX microspheres. As for the experimental part:
One milliliter of 5% ELVAX (poly(ethylene-vinyl acetate) cross-linked with 5% vinyl acetate) in dichloromethane ("DCM") is mixed with a fixed weight of sub-micron ground sodium suramin. This mixture is injected into 5 ml of 5% Polyvinyl Alcohol ("PVA") in water in a 30 ml flat bottomed test tube. Tubes containing different weights of the drug are then suspended in a multi-sample water bath at 40° for 90 minutes with automated stirring. The mixtures are removed, and microsphere samples taken for size analysis. Tubes are centrifuged at 1000 g for 5 min. The PVA supernatant is removed and saved for analysis (nonencapsulated drug). The microspheres are then washed (vortexed) in 5 ml of water and recentrifuged. The 5 ml wash is saved for analysis (surface bound drug). Microspheres are then wetted in 50 μl of methanol, and vortexed in 1 ml of DCM to dissolve the ELVAX. The microspheres are then warmed to 40° C., and 5 ml of 50° C. water is slowly added with stirring. This procedure results in the immediate evaporation of DCM, thereby causing the release of sodium suramin into the 5 ml of water.
All samples were assayed for drug content by quantification of fluorescence. Briefly, sodium suramin absorbs uv/vis with a lambda max of 312 nm. This absorption is linear in the 0 to 100 μg/ml range in both water and 5% PVA. […] This fluorescence is quantifiable in the 0 to 25 μg/ml range.

Consider `CN(Cc1cnc2nc(N)nc(N)c2n1)c1ccc(C(=O)N[C@@H](CCC(=O)O)C(=O)O)cc1` [MTX], for which, in data set [1], the MTX release result is given as “substantial amounts of MTX can be released from the polymer”.

Take `O=S(=O)([O-])[O-].[O]=[V+2]` [VOSO4, vanadyl sulfate]: the VOSO4 released in data set [2] (6 hours, 65 mg pellet 10% w/w in water) stood at 1 mg; in data set [2] (2 days, 65 mg pellet 10% w/w in water) it was 3 mg; in data set [2] (day 6, 65 mg pellet 10% w/w in water), 5 mg.

As to `Cc1ccc(C(=O)Nc2ccc(S(=O)(=O)O)c3cc(S(=O)(=O)O)cc(S(=O)(=O)O)c23)cc1NC(=O)c1cccc(NC(=O)Nc2cccc(C(=O)Nc3cc(C(=O)Nc4ccc(S(=O)(=O)O)c5cc(S(=O)(=O)O)cc(S(=O)(=O)O)c45)ccc3C)c2)c1` [suramin], the “drug encapsulated in 50 mg of ELVAX” value in data set [3] (50 mg ELVAX) came out at 50 µg. Moreover, the “% encapsulation” value in data set [3] (ELVAX microspheres) is listed as less than 1%.
